Test results from PubChem BioAssay (NCI).
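Step 1: Grow cells in 96-well plates. Step 2: Expose to compound for 48 hours at 5 concentrations. Step 3: Interpolate endpoints linearly; if unreached, use highest concentration. TGI denotes the concentration required for complete inhibition of growth.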

What was measured:
Assay in all cases: NCI anticancer screen, dose series, 48 h
[1] = tested on: TK-10 renal
[2] = tested on: HOP-92 NSCLC
[3] = tested on: U251 CNS
[4] = tested on: SN12C renal
[5] = tested on: NCI-H23 lung
[6] = tested on: M14 melanoma
[7] = tested on: SW-620 colon
[8] = tested on: NCI-H522 lung
[9] = tested on: ACHN renal
[10] = tested on: IGROV1 ovarian
[11] = tested on: LOX IMVI melanoma
[12] = tested on: KM12 colon
[13] = tested on: UO-31 renal
[14] = tested on: SF-268 CNS
[15] = tested on: SF-539 CNS
[16] = tested on: SK-MEL-5 melanoma
[17] = tested on: MDA-MB-435
[18] = tested on: OVCAR-3 ovarian
[19] = tested on: RPMI-8226 leukemia
[20] = tested on: MDA-N
[21] = tested on: MALME-3M melanoma
[22] = tested on: COLO 205 colon
[23] = tested on: CCRF-CEM leukemia
[24] = tested on: MOLT-4 leukemia
[25] = tested on: UACC-257 melanoma
[26] = tested on: MCF7 breast
[27] = tested on: SK-MEL-2 melanoma
[28] = tested on: NCI/ADR-RES ovarian
[29] = tested on: RXF 393 renal
[30] = tested on: MDA-MB-231 breast
[31] = tested on: A549 NSCLC
[32] = tested on: CAKI-1 renal
[33] = tested on: BT-549 breast
[34] = tested on: HS 578T breast
[35] = tested on: NCI-H226 lung
[36] = tested on: HOP-62 NSCLC
[37] = tested on: HCC-2998 colon
[38] = tested on: OVCAR-4 ovarian
[39] = tested on: PC-3 prostate
[40] = tested on: HL-60(TB) leukemia
[41] = tested on: 786-0 renal
[42] = tested on: A498 renal
[43] = tested on: T-47D breast
[44] = tested on: NCI-H460 lung
[45] = tested on: HCT-116 colon
[46] = tested on: DU-145 prostate
[47] = tested on: HT29 colon
[48] = tested on: SK-MEL-28 melanoma
[49] = tested on: SK-OV-3 ovarian
[50] = tested on: OVCAR-8 ovarian
[51] = tested on: HCT-15 colon
[52] = tested on: UACC-62 melanoma
[53] = tested on: OVCAR-5 ovarian
[54] = tested on: SNB-75 CNS
[55] = tested on: SNB-19 CNS
[56] = tested on: SR leukemia
[57] = tested on: SF-295 CNS
[58] = tested on: EKVX NSCLC
[59] = tested on: K-562 leukemia

SMILES: CO/C(N)=C(\C#N)N=Cc1ccccc1
- TGI [1]: > 100 µM
- TGI [2]: > 100 µM
- TGI [3]: > 100 µM
- TGI [4]: > 100 µM
- TGI [5]: > 100 µM
- TGI [6]: > 100 µM
- TGI [7]: > 100 µM
- TGI [8]: > 100 µM
- TGI [9]: > 100 µM
- TGI [10]: > 100 µM
- TGI [11]: > 100 µM
- TGI [12]: > 100 µM
- TGI [13]: > 100 µM
- TGI [14]: > 100 µM
- TGI [15]: > 100 µM
- TGI [16]: > 100 µM
- TGI [17]: > 100 µM
- TGI [18]: > 100 µM
- TGI [19]: > 100 µM
- TGI [20]: > 100 µM
- TGI [21]: > 100 µM
- TGI [22]: > 100 µM
- TGI [23]: > 100 µM
- TGI [24]: > 100 µM
- TGI [25]: > 100 µM
- TGI [26]: > 100 µM
- TGI [27]: > 100 µM
- TGI [28]: > 100 µM
- TGI [29]: > 100 µM
- TGI [30]: > 100 µM
- TGI [31]: > 100 µM
- TGI [32]: > 100 µM
- TGI [33]: > 100 µM
- TGI [34]: > 100 µM
- TGI [35]: > 100 µM
- TGI [36]: > 100 µM
- TGI [37]: > 100 µM
- TGI [38]: > 100 µM
- TGI [39]: > 100 µM
- TGI [40]: > 100 µM
- TGI [41]: > 100 µM
- TGI [42]: > 100 µM
- TGI [43]: > 100 µM
- TGI [44]: > 100 µM
- TGI [45]: > 100 µM
- TGI [46]: > 100 µM
- TGI [47]: > 100 µM
- TGI [48]: > 100 µM
- TGI [49]: > 100 µM
- TGI [50]: > 100 µM
- TGI [51]: > 100 µM
- TGI [52]: > 100 µM
- TGI [53]: > 100 µM
- TGI [54]: > 100 µM
- TGI [55]: > 100 µM
- TGI [56]: > 100 µM
- TGI [57]: > 100 µM
- TGI [58]: > 100 µM
- TGI [59]: > 100 µM

SMILES: COc1ccc(/C=C/C(=O)Oc2ccc(/C=C3\CCCCC3=O)cc2)cc1
- TGI [1]: > 100 µM
- TGI [2]: > 100 µM
- TGI [3]: > 100 µM
- TGI [4]: > 100 µM
- TGI [5]: > 100 µM
- TGI [6]: > 100 µM
- TGI [7]: > 100 µM
- TGI [8]: > 100 µM
- TGI [9]: > 100 µM
- TGI [10]: > 100 µM
- TGI [11]: > 100 µM
- TGI [12]: > 100 µM
- TGI [13]: > 100 µM
- TGI [14]: > 69.5 µM
- TGI [15]: > 100 µM
- TGI [16]: > 100 µM
- TGI [17]: > 100 µM
- TGI [18]: > 100 µM
- TGI [19]: 13.9 µM
- TGI [20]: > 100 µM
- TGI [21]: > 100 µM
- TGI [22]: > 93.2 µM
- TGI [23]: 6.77 µM
- TGI [24]: 7.51 µM
- TGI [25]: > 100 µM
- TGI [26]: > 100 µM
- TGI [27]: > 100 µM
- TGI [28]: > 100 µM
- TGI [29]: > 100 µM
- TGI [30]: > 83.9 µM
- TGI [31]: > 100 µM
- TGI [32]: > 100 µM
- TGI [33]: > 100 µM
- TGI [34]: > 100 µM
- TGI [35]: > 100 µM
- TGI [36]: > 77.3 µM
- TGI [37]: > 72.3 µM
- TGI [38]: > 90.2 µM
- TGI [39]: > 100 µM
- TGI [40]: > 83.6 µM
- TGI [41]: > 100 µM
- TGI [42]: > 100 µM
- TGI [43]: > 100 µM
- TGI [44]: > 100 µM
- TGI [45]: > 95.4 µM
- TGI [46]: > 100 µM
- TGI [47]: 26.3 µM
- TGI [48]: > 100 µM
- TGI [49]: > 100 µM
- TGI [50]: > 100 µM
- TGI [51]: > 100 µM
- TGI [52]: > 100 µM
- TGI [53]: > 100 µM
- TGI [54]: > 100 µM
- TGI [55]: > 100 µM
- TGI [56]: > 100 µM
- TGI [57]: 49.4 µM
- TGI [58]: > 100 µM
- TGI [59]: > 100 µM
